Here are results for twelve compounds from patent US20250092044A1, “Kinase Inhibitors” (Incyte Corporation, priority 2023, published 2025).

For assay [1], the target named is pseudo-kinase domain (JH2) of human V617F mutant JAK2 (Homo sapiens (Human), UniProt O60674, F794H/V617F/W659A/W777A). The assay can be described thus: JAK2 LanthaScreen JH2-V617F Binding Assay. Conditions: read-out: JH2 V617F Bind IC50. A digest of the protocol: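 Biotinylated His-Avi JAK2 JH2 (aa 536-812, V617F plus W659A/W777A/F794H; 0.26 nM) incubated 1 h at 25 °C with compound, 50 nM fluorescent JH2 tracer and 0.25 nM streptavidin-Tb in Tris pH 7.5 buffer. TR-FRET tracer displacement read; nonspecific binding with 2 mM ATP; IC50 from four-parameter fit.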
In general terms: TR-FRET usually uses a lanthanide donor and a delayed reading to cut background.

For assay [2], the system named is FLT3. The assay can be described thus: FLT3 Enzymatic Assay. It is filed as biochemical. Summed up:
(§1)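 Room-temperature HTRF kinase assay (665/620 nm ratio) with 0.011 nM FLT3, 1 mM ATP, 500 nM biotinylated TK substrate in HEPES pH 7.0 buffer with MgCl2 and DTT; 0.5% DMSO final. Read after 60 min incubation; IC50 fitted from percent control activity versus log concentration, no-ATP wells as negative control.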

The subject of assay [3] is pSTAT5 in SET-2 cells in whole blood. The assay can be described thus: pSTAT5 SET-2 Whole Blood MSD Assay. Format: cell-based. Conditions: Homo sapiens, 2 hour incubation, read-out: SET2 WB IC50. On the procedure:
SET-2 cells shipped from ABS, RPMI1640 medium, Fetal Bovine Serum from Gibco, Phospho-STAT5a,b Whole Cell Lysate Kit from Mesoscale, Retronectin (Recombinant Human Fibronectin Fragment) from TaKaRa, 96 well cell culture plate flat bottom from Corning, lysis buffer from Cell Signaling Technology, and sterile PBS from Gibco. Whole Blood from by BioIVT.
SET-2 cells were cultured in RPMI media with 20% FBS at 37° C. humidified incubator supplied with 5% CO2. On the day of the assay, 40 uL per well of diluted retronectin working solution was added to sterile 96-well clear flat bottom tissue culture plates (1:200 dilution of retronectin in sterile PBS) and incubated at 37 C for 1 hour. After 1 hour, the retronectin working solution was aspirated and SET-2 cells were seeded at 100,000/well in RPMI+20% FBS. Cells were incubated overnight at 37° C. and 5% CO2. The next day, the medium was removed and 40 μL of diluted compounds in serum-free RPMI and whole blood was added to the cells for a 2 hour incubation at 37° C. and 5% CO2. The compound starting concentration is 20 μM and 2.5 fold serial diluted down to 0.21 nM. The whole blood and compound mixture was then aspirated off using the BlueCat plate washer and washed 1× with PBS. Cells were lysed by adding 40 μL of 3× complete lysis buffer and shaken at room temperature for 45-60 minutes (complete lysis buffer consists of Cell Signaling Technology lysis buffer diluted to 3× and supplemented with Mesoscale's protease inhibitor, phosphatase I inhibitor, and phosphatase II inhibitor). The pSTAT5 MSD plates were blocked by adding 150 μL of Blocker A solution per well to the MSD plates and incubated at room temperature with shaking at 400 rpm for one hour or longer. After blocking, plates were washed 3× with 300 μL/well of 1× Tris Wash Buffer. After lysis, added 25 μL per well of lysed sample was added to MSD plate and incubated with shaking at 4° C. wrapped in foil overnight. The next day, plates were washed again and 25 μL/well of diluted 1× Detection Antibody Solution, wrapped in foil, and incubated at room temperature with shaking at 400 rpm for 1 hour. Plates were then washed again and lastly, 150 μL/well of 1× Read Buffer T was added to all wells. Plates were analyzed on MSD Discovery within 5 minutes. […] Data analysis was performed in GraphPad Prism using a 4-parameter fit and data was reported as Average±SD.

Assay [4] has as its target catalytic domain (JH1) of human JAK2 (Homo sapiens (Human), UniProt O60674). As to the kind of experiment: JAK2 LanthaScreen JH1 Binding Assay. Conditions: read-out: JH1 Bind IC50. Summed up: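 FLAG-tagged biotinylated JH1 (aa 826-1132, baculovirus-expressed), 1.5 nM, with serially diluted compound, 50 nM fluorescent tracer and 0.5 nM streptavidin-Tb in pH 7.5 Tris buffer, 2 h at 25 °C; nonspecific binding with 2 mM ATP. TR-FRET read, IC50 by four-parameter fit.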

Assay [5] addresses FLT3 (Homo sapiens (Human), UniProt P36888). As to the kind of experiment: FLT3 Enzymatic Assay. It is filed as biochemical. The conditions noted are these: 1 mM ATP. Summed up: as §1

Sequence of pseudo-kinase domain (JH2) of human V617F mutant JAK2 (O60674 536-812 V617F/W659A/W777A/F794H): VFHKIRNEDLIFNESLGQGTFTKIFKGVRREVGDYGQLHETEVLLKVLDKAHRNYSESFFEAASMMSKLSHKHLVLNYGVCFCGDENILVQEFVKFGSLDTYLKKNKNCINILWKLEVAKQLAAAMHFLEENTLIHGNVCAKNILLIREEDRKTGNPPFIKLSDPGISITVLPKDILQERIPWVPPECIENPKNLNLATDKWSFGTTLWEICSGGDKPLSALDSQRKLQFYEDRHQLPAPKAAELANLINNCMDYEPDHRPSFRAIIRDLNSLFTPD
Sequence of FLT3 (Homo sapiens (Human), UniProt P36888) (P36888 27-993, species assumed): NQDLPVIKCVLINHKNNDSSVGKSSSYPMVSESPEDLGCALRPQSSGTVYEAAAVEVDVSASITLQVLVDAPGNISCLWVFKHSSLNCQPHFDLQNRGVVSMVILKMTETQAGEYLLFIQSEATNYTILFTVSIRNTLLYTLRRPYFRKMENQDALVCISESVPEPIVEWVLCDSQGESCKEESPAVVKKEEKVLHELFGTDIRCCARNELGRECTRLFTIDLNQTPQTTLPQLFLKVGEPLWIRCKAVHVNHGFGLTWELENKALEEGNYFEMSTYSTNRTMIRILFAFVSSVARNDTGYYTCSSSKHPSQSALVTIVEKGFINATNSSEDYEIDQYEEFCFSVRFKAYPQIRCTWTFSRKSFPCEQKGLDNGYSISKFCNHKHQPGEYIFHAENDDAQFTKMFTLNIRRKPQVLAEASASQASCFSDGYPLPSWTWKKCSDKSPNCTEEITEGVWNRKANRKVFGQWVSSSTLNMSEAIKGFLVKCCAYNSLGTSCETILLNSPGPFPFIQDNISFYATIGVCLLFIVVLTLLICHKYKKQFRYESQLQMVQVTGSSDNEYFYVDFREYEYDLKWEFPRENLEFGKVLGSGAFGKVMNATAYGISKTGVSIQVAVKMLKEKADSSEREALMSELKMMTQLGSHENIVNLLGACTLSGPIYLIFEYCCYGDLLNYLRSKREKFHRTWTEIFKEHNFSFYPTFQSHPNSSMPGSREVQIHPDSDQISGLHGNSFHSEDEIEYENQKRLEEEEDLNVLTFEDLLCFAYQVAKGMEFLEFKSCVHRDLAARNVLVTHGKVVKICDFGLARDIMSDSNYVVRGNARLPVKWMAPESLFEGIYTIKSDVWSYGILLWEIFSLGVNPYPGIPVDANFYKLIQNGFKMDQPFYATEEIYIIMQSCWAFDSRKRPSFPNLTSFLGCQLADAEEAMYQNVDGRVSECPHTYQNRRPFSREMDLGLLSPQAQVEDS
Sequence of catalytic domain (JH1) of human JAK2 (O60674 826-1132): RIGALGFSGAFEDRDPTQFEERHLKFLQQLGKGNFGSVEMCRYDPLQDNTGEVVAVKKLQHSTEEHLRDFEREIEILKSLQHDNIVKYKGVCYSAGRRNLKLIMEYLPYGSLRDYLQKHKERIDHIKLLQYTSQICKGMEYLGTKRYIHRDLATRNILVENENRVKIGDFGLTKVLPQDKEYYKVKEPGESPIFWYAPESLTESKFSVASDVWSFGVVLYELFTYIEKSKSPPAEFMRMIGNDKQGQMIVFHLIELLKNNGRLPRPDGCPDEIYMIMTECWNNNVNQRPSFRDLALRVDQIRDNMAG

The term IC50 denotes the concentration at which inhibition is half-maximal. As for `COc1nn(C)cc1-c1[nH]c2ncc3c(c2c1-c1ccc2c(cnn2C)c1)n(C1CCOCC1)c(=O)n3C` [Comparative Example A, reference compound], the IC50 in assay [1] is at most 0.01 µM; in assay [3] it was 5 to 7.5 µM; in assay [4], over 1 µM. Further, the “Selectivity FLT3/JH2 V617F” value in assay [2] is “* (selectivity of ≤500-fold)”.
For `[2H]C([2H])([2H])n1ncc2cc(-c3c(-c4cn(C)nc4OC)[nH]c4ncc5c(c34)n(C3CCOCC3)c(=O)n5C)ccc21` [Comparative Example B, reference compound] the same measures were at most 0.01 µM, 5 to 7.5 µM, over 1 µM and “* (selectivity of ≤500-fold)”.
As to `COc1nn(C)cc1-c1[nH]c2ncc3c(c2c1-c1ccc2c(cnn2C)c1)n([C@H]1CC[C@@H](CC#N)CC1)c(=O)n3C` [E, reference compound], the concentration for half-maximal inhibition (IC50) is at most 0.01 µM in assay [1], over 7.5 µM in assay [3] and over 1 µM in assay [4]. The “Selectivity FLT3/JH2 V617F” value in assay [2] is listed as “* (selectivity of ≤500-fold)”.
On to `CCNC(=O)c1ccc(-c2[nH]c3ncc4c(c3c2-c2ccc3c(cnn3C(C)C)c2)n([C@@H]2CC[C@@H](NC(=O)OC)C2)c(=O)n4C)cc1F` [Example 6, Methyl ((1R,3R)-3-(7-(4-(ethylcarbamoyl)-3-fluorophenyl)-8-(1-isopropyl-1H-indazol-5-yl)-3-methyl-2-oxo-3,6-dihydroimidazo[4,5-d]pyrrolo[2,3-b]pyridin-1(2H)-yl)cyclopentyl)carbamate], for which the IC50 in assay [1] was at most 0.01 µM; in assay [5], 1.25 to 2.5 µM; in assay [3], 2.5 to 5 µM; in assay [4] it was over 1 µM. Also, in assay [2], the “Selectivity FLT3/JH2 V617F” value is recorded as “***** (selectivity of >5000-fold to ≤12500-fold)”.
For `COC(=O)N[C@@H]1CC[C@@H](n2c(=O)n(C)c3cnc4[nH]c(-c5ccc(C(=O)NC6CC6)c(F)c5)c(-c5ccc6c(cnn6C(C)C)c5)c4c32)C1` [Example 8, Methyl ((1R,3R)-3-(7-(4-(cyclopropylcarbamoyl)-3-fluorophenyl)-8-(1-isopropyl-1H-indazol-5-yl)-3-methyl-2-oxo-3,6-dihydroimidazo[4,5-d]pyrrolo[2,3-b]pyridin-1(2H)-yl)cyclopentyl)carbamate] the same measures were at most 0.01 µM, over 2.5 µM, 5 to 7.5 µM, over 1 µM and “****** (selectivity of >12500-fold)”.
On to `COC(=O)N[C@@H]1CC[C@@H](n2c(=O)n(C)c3cnc4[nH]c(-c5ccc(C(=O)NC6CC6(F)F)c(F)c5)c(-c5ccc6c(cnn6C(C)C)c5)c4c32)C1` (stereo partly drawn) [Example 9, Methyl ((1R,3R)-3-(7-(4-((2,2-difluorocyclopropyl)carbamoyl)-3-fluorophenyl)-8-(1-isopropyl-1H-indazol-5-yl)-3-methyl-2-oxo-3,6-dihydroimidazo[4,5-d]pyrrolo[2,3-b]pyridin-1(2H)-yl)cyclopentyl)carbamate], for which the half-maximal inhibitory concentration (IC50) in assay [1] was at most 0.01 µM; in assay [5], over 2.5 µM; in assay [3], 5 to 7.5 µM; in assay [4], over 1 µM. The “Selectivity FLT3/JH2 V617F” value in assay [2] was “****** (selectivity of >12500-fold)”.
In the case of `COC(=O)N[C@@H]1CC[C@@H](n2c(=O)n(C)c3cnc4[nH]c(-c5ccc(C(=O)NC6CC6C(F)(F)F)c(F)c5)c(-c5ccc6c(cnn6C(C)C)c5)c4c32)C1` (stereo partly drawn) [Example 10, Methyl ((1R,3R)-3-(7-(3-fluoro-4-((2-(trifluoromethyl)cyclopropyl)carbamoyl)phenyl)-8-(1-isopropyl-1H-indazol-5-yl)-3-methyl-2-oxo-3,6-dihydroimidazo[4,5-d]pyrrolo[2,3-b]pyridin-1(2H)-yl)cyclopentyl)carbamate], the 50% inhibitory concentration (IC50) in assay [1] was at most 0.01 µM; in assay [5], over 2.5 µM; in assay [3] it was over 7.5 µM; in assay [4] it was over 1 µM. In assay [2], the “Selectivity FLT3/JH2 V617F” value is on record as “****** (selectivity of >12500-fold)”.
Consider `COC(=O)N[C@@H]1CC[C@@H](n2c(=O)n(C)c3cnc4[nH]c(-c5ccc(C(=O)NCC(F)(F)F)c(F)c5)c(-c5ccc6c(cnn6C(C)C)c5)c4c32)C1` [Example 11, Methyl ((1R,3R)-3-(7-(3-fluoro-4-((2,2,2-trifluoroethyl)carbamoyl)phenyl)-8-(1-isopropyl-1H-indazol-5-yl)-3-methyl-2-oxo-3,6-dihydroimidazo[4,5-d]pyrrolo[2,3-b]pyridin-1(2H)-yl)cyclopentyl)carbamate], for which the half-maximal inhibitory concentration (IC50) was at most 0.01 µM in assay [1], over 2.5 µM in assay [5], over 7.5 µM in assay [3] and over 1 µM in assay [4]. The “Selectivity FLT3/JH2 V617F” value in assay [2] is recorded as “****** (selectivity of >12500-fold)”.
Regarding `CNC(=O)c1ccc(-c2[nH]c3ncc4c(c3c2-c2ccc3c(cnn3C(C)C)c2)n([C@@H]2CC[C@@H](NC(=O)OC)C2)c(=O)n4C)cc1F` [Example 12, Methyl ((1R,3R)-3-(7-(3-fluoro-4-(methylcarbamoyl)phenyl)-8-(1-isopropyl-1H-indazol-5-yl)-3-methyl-2-oxo-3,6-dihydroimidazo[4,5-d]pyrrolo[2,3-b]pyridin-1(2H)-yl)cyclopentyl)carbamate], the IC50 was at most 0.01 µM in assay [1], over 2.5 µM in assay [5], over 7.5 µM in assay [3] and over 1 µM in assay [4]. In addition, the “Selectivity FLT3/JH2 V617F” value in assay [2] was “****** (selectivity of >12500-fold)”.
For `COC(=O)N[C@@H]1CC[C@@H](n2c(=O)n(C)c3cnc4[nH]c(-c5ccc(C(=O)NC6(C(F)(F)F)CC6)c(F)c5)c(-c5ccc6c(cnn6C(C)C)c5)c4c32)C1` [Example 13, Methyl ((1R,3R)-3-(7-(3-fluoro-4-((1-(trifluoromethyl)cyclopropyl)carbamoyl)phenyl)-8-(1-isopropyl-1H-indazol-5-yl)-3-methyl-2-oxo-3,6-dihydroimidazo[4,5-d]pyrrolo[2,3-b]pyridin-1(2H)-yl)cyclopentyl)carbamate] the same measures were at most 0.01 µM, over 2.5 µM, 5 to 7.5 µM, over 1 µM and “****** (selectivity of >12500-fold)”.
`COCCNC(=O)c1ccc(-c2[nH]c3ncc4c(c3c2-c2ccc3c(cnn3C(C)C)c2)n([C@@H]2CC[C@@H](NC(=O)OC)C2)c(=O)n4C)cc1F` [Example 14, Methyl ((1R,3R)-3-(7-(3-fluoro-4-((2-methoxyethyl)carbamoyl)phenyl)-8-(1-isopropyl-1H-indazol-5-yl)-3-methyl-2-oxo-3,6-dihydroimidazo[4,5-d]pyrrolo[2,3-b]pyridin-1(2H)-yl)cyclopentyl)carbamate]: the IC50 in assay [1] is at most 0.01 µM; in assay [5], over 2.5 µM; in assay [3], 5 to 7.5 µM; in assay [4] it was over 1 µM. Besides, in assay [2], the “Selectivity FLT3/JH2 V617F” value was “****** (selectivity of >12500-fold)”.
In the case of `COCCN(C)C(=O)c1ccc(-c2[nH]c3ncc4c(c3c2-c2ccc3c(cnn3C(C)C)c2)n([C@@H]2CC[C@@H](NC(=O)OC)C2)c(=O)n4C)cc1F` [Example 15, Methyl ((1R,3R)-3-(7-(3-fluoro-4-((2-methoxyethyl)(methyl)carbamoyl)phenyl)-8-(1-isopropyl-1H-indazol-5-yl)-3-methyl-2-oxo-3,6-dihydroimidazo[4,5-d]pyrrolo[2,3-b]pyridin-1(2H)-yl)cyclopentyl)carbamate], the IC50 was at most 0.01 µM in assay [1], 1.25 to 2.5 µM in assay [5], 5 to 7.5 µM in assay [3] and over 1 µM in assay [4]. Further, the “Selectivity FLT3/JH2 V617F” value in assay [2] is “****** (selectivity of >12500-fold)”.
